Where a name gives a salt, the structure may show the parent alone.
The compounds below were run on recombinant NL4-3 virus (Renilla luciferase, Gag P373S) (assay: HIV cell culture assay (luciferase reporter, MT-2 cells)). Details: Renilla, NL43, MT-2 cells infected for 4-5 days with NLRluc recombinants; luciferase activity.
Format: cell-based
Procedure: MT-2 cells and 293T cells were obtained from the NIH AIDS Research and Reference Reagent Program. MT-2 cells were propagated in RPMI 1640 media supplemented with 10% heat inactivated fetal bovine serum, […]. The 293T cells were propagated in DMEM media supplemented with 10% heat inactivated fetal bovine serum (FBS), 100 units/ml penicillin G and 100 μg/ml streptomycin. The proviral DNA clone of NL4-3 was obtained from the NIH AIDS Research and Reference Reagent Program. A recombinant NL4-3 virus, in which a section of the nef gene from NL4-3 was replaced with the Renilla luciferase gene, was used as a reference virus. In addition, residue Gag P373 was converted to P373S. Briefly, the recombinant virus was prepared by transfection of the altered proviral clone of NL4-3. Transfections were performed in 293T cells using LipofectAMINE PLUS from Invitrogen (Carlsbad, Calif.), according to manufacturer's instruction. The virus was titered in MT-2 cells using luciferase enzyme activity as a marker. Luciferase was quantitated using the Dual Luciferase kit from Promega (Madison, Wis.), with modifications to the manufacturer's protocol. The diluted Passive Lysis solution was pre-mixed with the re-suspended Luciferase Assay Reagent and the re-suspended Stop & Glo Substrate (2:1:1 ratio). Fifty (50) μL of the mixture was added to each aspirated well on assay plates and luciferase activity was measured immediately on a Wallac TriLux (Perkin-Elmer). Antiviral activities of inhibitors toward the recombinant virus were quantified by measuring luciferase activity in cells infected for 4-5 days with NLRluc recombinants in the presence serial dilutions of the inhibitor.
In the case of `C=C(C)[C@@H]1CC[C@]2(NCCN3CCOCC3)CC[C@]3(C)[C@H](CC[C@@H]4[C@@]5(C)CC=C(C6=CCC(C(=O)O)CC6)C(C)(C)[C@@H]5CC[C@]43C)[C@@H]12` (stereo partly drawn) [Example 14, 4-((1R,3aS,5aR,5bR,7aR,11aS,11bR,13aR,13bR)-5a,5b,8,8,11a-pentamethyl-3a-((2-morpholinoethyl)amino)-1-(prop-1-en-2-yl)-2,3,3a,4,5,5a,5b,6,7,7a,8,11,11a,11b,12,13,13a,13b-octadecahydro-1H-cyclopenta[a]chrysen-9-yl)cyclohex-3-enecarboxylic acid, TFA], the EC50 is reported as 5.61 nM. Work on `C=C(C)[C@@H]1CC[C@]2(NCCN3CCC(S(C)(=O)=O)CC3)CC[C@]3(C)[C@H](CC[C@@H]4[C@@]5(C)CC=C(C6=CC[C@H](C(=O)O)CC6)C(C)(C)[C@@H]5CC[C@]43C)[C@@H]12` [Example 15, (R)-4-((1R,3aS,5aR,5bR,7aR,11aS,11bR,13aR,13bR)-5a,5b,8,8,11a-pentamethyl-3a-((2-(4-(methylsulfonyl)piperidin-1-yl)ethyl)amino)-1-(prop-1-en-2-yl)-2,3,3a,4,5,5a,5b,6,7,7a,8,11,11a,11b,12,13,13a,13b-octadecahydro-1H-cyclopenta[a]chrysen-9-yl)cyclohex-3-enecarboxylic acid, TFA] yielded an EC50 of 1.36 nM. `C=C(C)[C@@H]1CC[C@]2(NCCN3CCC(S(C)(=O)=O)CC3)CC[C@]3(C)[C@H](CC[C@@H]4[C@@]5(C)CC=C(C6=CC[C@@H](C(=O)O)CC6)C(C)(C)[C@@H]5CC[C@]43C)[C@@H]12` [Example 16, (S)-4-((1R,3aS,5aR,5bR,7aR,11aS,11bR,13aR,13bR)-5a,5b,8,8,11a-pentamethyl-3a-((2-(4-(methylsulfonyl)piperidin-1-yl)ethyl)amino)-1-(prop-1-en-2-yl)-2,3,3a,4,5,5a,5b,6,7,7a,8,11,11a,11b,12,13,13a,13b-octadecahydro-1H-cyclopenta[a]chrysen-9-yl)cyclohex-3-enecarboxylic acid, TFA] gave an EC50 of 3.05 nM. For `C=C(C)[C@@H]1CC[C@]2(N)CC[C@]3(C)[C@H](CC[C@@H]4[C@@]5(C)CC=C(C6=CCC(C(=O)O)CC6)C(C)(C)[C@@H]5CC[C@]43C)[C@@H]12` (stereo partly drawn) [Example 17, 4-((1R,3aS,5aR,5bR,7aR,11aS,11bR,13aR,13bR)-3a-amino-5a,5b,8,8,11a-pentamethyl-1-(prop-1-en-2-yl)-2,3,3a,4,5,5a,5b,6,7,7a,8,11,11a,11b,12,13,13a,13b-octadecahydro-1H-cyclopenta[a]chrysen-9-yl)cyclohex-3-enecarboxylic acid, HCl], the EC50 was 0.877 nM. With `C=C(C)[C@@H]1CC[C@]2(NCCO)CC[C@]3(C)[C@H](CC[C@@H]4[C@@]5(C)CC=C(C6=CCC(C(=O)O)CC6)C(C)(C)[C@@H]5CC[C@]43C)[C@@H]12` (stereo partly drawn) [Example 18, 4-((1R,3aS,5aR,5bR,7aR,11aS,11bR,13aR,13bR)-3a-((2-hydroxyethyl)amino)-5a,5b,8,8,11a-pentamethyl-1-(prop-1-en-2-yl)-2,3,3a,4,5,5a,5b,6,7,7a,8,11,11a,11b,12,13,13a,13b-octadecahydro-1H-cyclopenta[a]chrysen-9-yl)cyclohex-3-enecarboxylic acid, TFA] the EC50 was 1.38 nM. For `C=C(C)[C@@H]1CC[C@]2(NCCO)CC[C@]3(C)[C@H](CC[C@@H]4[C@@]5(C)CC=C(C6=CC[C@H](C(=O)O)CC6)C(C)(C)[C@@H]5CC[C@]43C)[C@@H]12` [Example 19, (R)-4-((1R,3aS,5aR,5bR,7aR,11aS,11bR,13aR,13bR)-3a-((2-hydroxyethyl)amino)-5a,5b,8,8,11a-pentamethyl-1-(prop-1-en-2-yl)-2,3,3a,4,5,5a,5b,6,7,7a,8,11,11a,11b,12,13,13a,13b-octadecahydro-1H-cyclopenta[a]chrysen-9-yl)cyclohex-3-enecarboxylic acid, TFA], the EC50 was 1.14 nM. Work on `C=C(C)[C@@H]1CC[C@]2(NCCO)CC[C@]3(C)[C@H](CC[C@@H]4[C@@]5(C)CC=C(C6=CC[C@@H](C(=O)O)CC6)C(C)(C)[C@@H]5CC[C@]43C)[C@@H]12` [Example 20, (S)-4-((1R,3aS,5aR,5bR,7aR,11aS,11bR,13aR,13bR)-3a-((2-hydroxyethyl)amino)-5a,5b,8,8,11a-pentamethyl-1-(prop-1-en-2-yl)-2,3,3a,4,5,5a,5b,6,7,7a,8,11,11a,11b,12,13,13a,13b-octadecahydro-1H-cyclopenta[a]chrysen-9-yl)cyclohex-3-enecarboxylic acid, TFA] yielded an EC50 of 1.57 nM. For `C=C(C)[C@@H]1CC[C@]2(NCCN3CCS(=O)(=O)CC3)CC[C@]3(C)[C@H](CC[C@@H]4[C@@]5(C)CC=C(C6=CCC(C(=O)NS(C)(=O)=O)CC6)C(C)(C)[C@@H]5CC[C@]43C)[C@@H]12` (stereo partly drawn) [Example 21, 4-((1R,3aS,5aR,5bR,7aR,11aS,11bR,13aR,13bR)-3a-((2-(1,1-dioxidothiomorpholino)ethyl)amino)-5a,5b,8,8,11a-pentamethyl-1-(prop-1-en-2-yl)-2,3,3a,4,5,5a,5b,6,7,7a,8,11,11a,11b,12,13,13a,13b-octadecahydro-1H-cyclopenta[a]chrysen-9-yl)-N-(methylsulfonyl)cyclohex-3-enecarboxamide, TFA], the EC50 was 1.8 nM. Compound `C=C(C)[C@@H]1CC[C@]2(NC(=O)OC(C)(C)C)CC[C@]3(C)[C@H](CC[C@@H]4[C@@]5(C)CC=C(C6=CC7(C6)CC(C(=O)O)(C(=O)O)C7)C(C)(C)[C@@H]5CC[C@]43C)[C@@H]12` [Example A1, 6-((1R,3aS,5aR,5bR,7aR,11aS,11bR,13aR,13bR)-3a-((tert-butoxycarbonyl)amino)-5a,5b,8,8,11a-pentamethyl-1-(prop-1-en-2-yl)-2,3,3a,4,5,5a,5b,6,7,7a,8,11,11a,11b,12,13,13a,13b-octadecahydro-1H-cyclopenta[a]chrysen-9-yl)spiro[3.3]hept-5-ene-2,2-dicarboxylic acid] has an EC50 of 570 nM. In the case of `C=C(C)[C@@H]1CC[C@]2(NCCN(c3ccccc3)S(=O)(=O)C(F)(F)F)CC[C@]3(C)[C@H](CC[C@@H]4[C@@]5(C)CC=C(C6=CC7(C6)CC(C(=O)O)(C(=O)O)C7)C(C)(C)[C@@H]5CC[C@]43C)[C@@H]12` [Example A2, 6-((1R,3aS,5aR,5bR,7aR,11aS,11bR,13aR,13bR)-5a,5b,8,8,11a-pentamethyl-1-(prop-1-en-2-yl)-3a-((2-(1,1,1-trifluoro-N-phenylmethylsulfonamido)ethyl)amino)-2,3,3a,4,5,5a,5b,6,7,7a,8,11,11a,11b,12,13,13a,13b-octadecahydro-1H-cyclopenta[a]chrysen-9-yl)spiro[3.3]hept-5-ene-2,2-dicarboxylic acid], the EC50 is reported as 1070 nM. `C=C(C)[C@@H]1CC[C@]2(NCCN(c3ccc(Cl)cn3)S(=O)(=O)C(F)(F)F)CC[C@]3(C)[C@H](CC[C@@H]4[C@@]5(C)CC=C(C6=CC7(C6)CC(C(=O)O)(C(=O)O)C7)C(C)(C)[C@@H]5CC[C@]43C)[C@@H]12` [Example A3, 6-((1R,3 aS,5aR,5bR,7aR,11aS,11bR,13 aR,13bR)-3a-((2-(N-(5-chloropyridin-2-yl)-1,1,1-trifluoromethylsulfonamido)ethyl)amino)-5a,5b,8,8,11a-pentamethyl-1-(prop-1-en-2-yl)-2,3,3a,4,5,5a,5b,6,7,7a,8,11,11a,11b,12,13,13a,13b-octadecahydro-1H-cyclopenta[a]chrysen-9-yl)spiro[3.3]hept-5-ene-2,2-dicarboxylic acid] was tested, and the EC50 was 1750 nM. `C=C(C)[C@@H]1CC[C@]2(NCCN3CCOCC3)CC[C@]3(C)[C@H](CC[C@@H]4[C@@]5(C)CC=C(C6=CC7(C6)CC(C(=O)O)(C(=O)O)C7)C(C)(C)[C@@H]5CC[C@]43C)[C@@H]12` [Example A4, 6-((1R,3aS,5aR,5bR,7aR,11aS,11bR,13aR,13bR)-5a,5b,8,8,11a-pentamethyl-3a-((2-morpholinoethyl)amino)-1-(prop-1-en-2-yl)-2,3,3a,4,5,5a,5b,6,7,7a,8,11,11a,11b,12,13,13a,13b-octadecahydro-1H-cyclopenta[a]chrysen-9-yl)spiro[3.3]hept-5-ene-2,2-dicarboxylic acid] was tested, and the EC50 was 100 nM. Compound `C=C(C)[C@@H]1CC[C@]2(NCCN3CCS(=O)(=O)CC3)CC[C@]3(C)[C@H](CC[C@@H]4[C@@]5(C)CC=C(C6=CCC(C#N)(C(=O)O)CC6)C(C)(C)[C@@H]5CC[C@]43C)[C@@H]12` (stereo partly drawn) [Example A5, 1-cyano-4-((1R,3aS,5aR,5bR,7aR,11aS,11bR,13aR,13bR)-3a-((2-(1,1-dioxidothiomorpholino)ethyl)amino)-5a,5b,8,8,11a-pentamethyl-1-(prop-1-en-2-yl)-2,3,3a,4,5,5a,5b,6,7,7a,8,11,11a,11b,12,13,13a,13b-octadecahydro-1H-cyclopenta[a]chrysen-9-yl)cyclohex-3-enecarboxylic acid] has an EC50 of 4.26 nM.

— patent US8906889B2, “C-3 cycloalkenyl triterpenoids with HIV maturation inhibitory activity” (priority 2012, dated 2014)
